By IC50 is commonly meant the concentration at which inhibition is half-maximal.

Results on seven compounds are retold here after patent publication US20150306108A1, “COMPOSITIONS OF ALDH1A1 INHIBITORS AND METHODS OF USE IN TREATING CANCER” (Indiana University Research & Technology Corporation, priority 2014, published 2015).

Like-named read-outs stand apart in the source and are kept apart here.

One test addresses T1, ALDH1B1 (Homo sapiens, UniProt P30837).
T1 sequence (P30837 18-517): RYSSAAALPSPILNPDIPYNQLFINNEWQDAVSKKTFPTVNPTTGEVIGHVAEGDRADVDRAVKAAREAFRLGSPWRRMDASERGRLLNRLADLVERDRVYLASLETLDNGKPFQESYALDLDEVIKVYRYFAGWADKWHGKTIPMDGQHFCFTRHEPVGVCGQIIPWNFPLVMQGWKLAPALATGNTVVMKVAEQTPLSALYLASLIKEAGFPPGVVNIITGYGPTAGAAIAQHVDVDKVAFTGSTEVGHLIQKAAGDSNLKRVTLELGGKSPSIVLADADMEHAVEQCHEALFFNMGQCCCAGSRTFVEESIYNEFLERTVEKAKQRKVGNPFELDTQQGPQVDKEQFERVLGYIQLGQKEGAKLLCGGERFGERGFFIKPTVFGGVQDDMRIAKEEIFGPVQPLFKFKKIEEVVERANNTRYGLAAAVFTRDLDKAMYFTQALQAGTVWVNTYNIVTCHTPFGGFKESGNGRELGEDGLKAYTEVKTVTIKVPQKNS
Briefly: ALDH1B1 aldehyde oxidation activity assay. It counts as biochemical.

Another test deals with T2, ALDH3A1 (Homo sapiens, UniProt P30838).
T2 construct: made in house
T2 sequence (P30838 1-453): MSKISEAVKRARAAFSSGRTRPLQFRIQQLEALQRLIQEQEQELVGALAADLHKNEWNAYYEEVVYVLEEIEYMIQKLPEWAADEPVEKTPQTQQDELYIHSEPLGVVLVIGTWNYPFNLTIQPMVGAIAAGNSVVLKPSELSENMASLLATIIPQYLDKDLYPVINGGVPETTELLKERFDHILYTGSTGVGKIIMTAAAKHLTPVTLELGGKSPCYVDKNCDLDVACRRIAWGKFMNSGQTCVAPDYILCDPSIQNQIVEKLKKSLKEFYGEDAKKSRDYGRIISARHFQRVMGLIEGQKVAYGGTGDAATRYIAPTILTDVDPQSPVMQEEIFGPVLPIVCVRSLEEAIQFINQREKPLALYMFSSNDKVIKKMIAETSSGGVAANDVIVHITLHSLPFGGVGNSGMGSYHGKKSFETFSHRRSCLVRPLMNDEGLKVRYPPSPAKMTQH
Briefly: ALDH3A1 benzaldehyde oxidation activity assay. In kind it is biochemical. The following applies: for IC50: Table 4, NI/NI(A) at 100 μM compound, read-out: IC50 in μM (SE) ALDH3A1. The procedure:
Hits from the HTS were ordered from ChemDiv to determine if they had any effect on aldehyde oxidation and whether they were selective for ALDH1A1 compared to ALDH2 and ALDH3A1. Dehydrogenase activity of the three isoenzymes were assayed by monitoring the production of NADH at 340 nm (molar extinction coefficient of 6220 M^−1 cm^−1) on a Beckman DU-640 or Cary 300 Bio UV-Vis spectrophotometer for 2 to 3 minutes. For ALDH1A1 and ALDH2, the reaction contained 100-200 nM enzyme, 200 μM NAD^+, 100 μM propionaldehyde, and 1% DMSO in 50 mM Na^+ BES, pH 7.5 at room temperature. For ALDH3A1, the reaction contained 20 nM enzyme, 200 μM NAD^+, 300 μM benzaldehyde, and 1% DMSO in either 100 mM sodium phosphate or 50 mM Na^+ BES at pH 7.5 at room temperature.
For most compounds, 20 μM concentration was used for the selectivity assays. […] Following a 2 minute incubation of enzyme, compound, and NAD^+, the reaction was initiated by adding substrate. […] Data were fit to the four parameter EC50 equation using SigmaPlot (StatSys v12.3).
Dehydrogenase activity of purified recombinant ALDH1A1, ALDH1A2, ALDH1A3, ALDH1B1, ALDH2, and ALDH3A1 was assayed spectrophotometrically by monitoring the formation of NADH at 340 nm (molar extinction coefficient of 6220 M^−1 cm^−1) on a Beckman DU-640 or Cary 300 Bio UV-Vis spectrophotometer. Characterization of ALDH1A1 WT and ALDH1A1 G458N were performed by co-varying acetaldehyde and NAD^+ concentrations in reactions containing 150-300 nM enzyme, 50-500 μM or 20-200 μM acetaldehyde, and 50-500 μM NAD^+ in 50 mM sodium BES, pH 7.5 at 25° C. Reactions were initiated by adding enzyme. Selectivity of compounds for dehydrogenase activity of ALDH1A1, ALDH1A2, ALDH1A3, ALDH1B1 and ALDH2 were measured in a solution containing 100-200 nM enzyme, 200 μM NAD^+, 1% DMSO, and 100 μM propionaldehyde (non-saturating for all enzymes tested, except ALDH2) in 50 mM sodium BES. ALDH3A1 activity was measured under the following conditions: 25 nM enzyme, 200 μM NAD^+, 1% DMSO, and 300 μM benzaldehyde (˜KM) in either 100 mM sodium phosphate buffer, pH 7.5 or 50 mM sodium BES, pH 7.5. All assays were performed at 25° C. and were initiated by the addition of the aldehyde substrate following a 2 minute pre-incubation with compound and cofactor. Selectivity was initially tested using 20 μM compound, with ALDH1A1-selective modulators further tested using 100 μM compound. […] After a 2 minute pre-incubation with compound and NAD^+, all reactions were initiated by the addition of propionaldehyde. Data were fit to the four parameter EC50 equation using SigmaPlot (StatSys v12.3). The values represent the average of three independent experiments (each n=3). The mode of inhibition was determined via steady-state kinetics by co-varying inhibitor and substrate concentrations at fixed concentration of the second substrate. All reactions contained 100-150 nM ALDH1A1 and 1% DMSO in 50 mM sodium BES, pH 7.5 at 25° C. […] All data were fit to competitive, noncompetitive, uncompetitive, and mixed inhibition models using both single substrate-single inhibitor or tight binding inhibition programs in SigmaPlot (StatSys v12.3). The appropriate model was selected through analysis of goodness-of-fit and the residuals of those fits. The values represent the average of three independent experiments (each n=3) using at least two protein preps.
ALDH1A1, ALDH1A2, ALDH1A3, ALDH2, and ALDH3A1 were produced and purified as previously described. A highthroughput screen (HTS) of 64,000 compounds from the ChemDiv Corp. was performed to identify activators and inhibitors of ALDH1A1. The hydrolysis of para-nitrophenylacetate was used as a measure ALDH1A1 activity (see SM). Selectivity for closely related orthologs was tested at 20 and 100 μM using purified recombinant human ALDH1A1, ALDH1A2, ALDH1A3, ALDH2, and ALDH3A1. […]

The mark [1] stands for this setting: Table 4, NI/NI(A) at 100 μM compound, read-out: IC50 in μM (SE) ALDH1B1.

For the compound `CC(C)CCn1c(CN2CCN(C(=O)c3ccco3)CC2)nc2c1c(=O)n(C)c(=O)n2C` [CM026], the “effect on ALDH1B1” value at ALDH1B1 (20 μM compound) is recorded as “no effect”. Moreover, on ALDH1B1 (100 μM compound), the “effect on aldehyde oxidation catalyzed by ALDH1B1” value is “modestly increased”. Moreover, the half-maximal inhibitory concentration (IC50) on ALDH1B1 (setting [1]) and on ALDH3A1 was over 100 µM each time. In addition, on ALDH3A1 (20 μM compound), the “effect on ALDH3A1” value was “no effect”.

For the compound `Cn1c(=O)c2c(nc(CN3CCC(C(N)=O)CC3)n2CCCc2ccccc2)n(C)c1=O` [CM028], the 50% inhibitory concentration (IC50) at ALDH3A1 is over 100 µM.

As to `CCOC(=O)CSc1nc2c(sc3ccccc32)c(=O)n1CCCN1CCCC1` [CM037, ethyl-2-((4-oxo-3-(3-(pryrrolidin-1-yl)propyl)-3,4-dihydrobenzo[4,5]thioeno[3,2-d]pyrimidin-2-yl)thio)acetate], on ALDH3A1 (concentrations up to 100 μM), the “effect on ALDH3A1” value is “no effect”.

In the case of `CC(C)CCn1c(CN2CCOCC2)nc2c1c(=O)n(C)c(=O)n2C` [CM056], the 50% inhibitory concentration (IC50) on ALDH3A1 is over 100 µM.

With `COc1ccc(C(=O)CSC#N)cc1OC` [CM302], the “effect on ALDH3A1” value on ALDH3A1 (20 μM compound) was “To a limited degree”. Further, on ALDH3A1 (fold higher), the “IC50 with ALDH3A1 compared to ALDH1A1 and ALDH2” value is “greater than 10 fold”.

For the compound `Cn1c(=O)c2c(ncn2C)n(C)c1=O` [Caffeine, reference compound], the half-inhibitory concentration (IC50) on ALDH1B1 (setting [1]) and on ALDH3A1 was over 100 µM in each case.

As for `Cn1c(=O)c2[nH]cnc2n(C)c1=O` [Theophylline, reference compound], the 50% inhibitory concentration (IC50) at ALDH1B1 and at ALDH3A1 was over 100 µM throughout.
